Test system: T1, GmSULTR1;2b
T1 construct: C-terminal STAS domain
Assay: […]-sulfate uptake in sul1 sul2 yeast cells, Michaelis-Menten fit
Type: cell-based, Glycine max
Settings: pH 6.0; proton-coupled uptake; yeast CP154-7A; labelled compound

SMILES: O=S(=O)(O)O [sulfate]
- Km: 9.5 ± 1.7 µM

From PMC4874011, “Identification and functional characterization of the sulfate transporter gene GmSULTR1;2b in soybean” (BMC Genomics, 2016)
